SMILES strings stand for the structures.

Experiment in all cases: DSF 100 kinase selectivity screen;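 also: compound tested at 20 µM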
Common to all, as to assay type: binding

In test [1] the target is T1, ~100 representative kinases (Homo sapiens, UniProt O14733).
T1 construct: Recombinant protein kinase domains with a concentration of 2 μM
T1 sequence (O14733 1-419): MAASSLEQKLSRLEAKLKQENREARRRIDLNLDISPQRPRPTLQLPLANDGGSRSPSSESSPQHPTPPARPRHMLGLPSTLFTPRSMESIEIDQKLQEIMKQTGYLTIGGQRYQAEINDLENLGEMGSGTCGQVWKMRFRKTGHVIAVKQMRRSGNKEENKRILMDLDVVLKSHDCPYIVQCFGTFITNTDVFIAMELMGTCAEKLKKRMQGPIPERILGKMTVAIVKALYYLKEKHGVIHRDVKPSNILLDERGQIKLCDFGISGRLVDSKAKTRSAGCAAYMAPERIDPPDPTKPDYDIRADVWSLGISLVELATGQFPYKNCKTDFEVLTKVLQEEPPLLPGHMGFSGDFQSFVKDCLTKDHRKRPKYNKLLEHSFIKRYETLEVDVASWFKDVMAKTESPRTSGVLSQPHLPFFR
The note with it: protein MAP2K7; average of three replicates. An outline of the steps: (§1)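 Each kinase domain, at 2 μM, is mixed with 20 μM test compound and SYPRO Orange in Hepes (20 mM, pH 7.5) with 500 mM NaCl. Temperature is then raised at 3°C/min and fluorescence-monitored unfolding yields the melting temperature change, ΔTm in degrees Celsius.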

For test [2], the target named is T2, ~100 representative kinases (Homo sapiens, UniProt O14965).
T2 construct: Recombinant protein kinase domains with a concentration of 2 μM
T2 sequence (O14965 1-403): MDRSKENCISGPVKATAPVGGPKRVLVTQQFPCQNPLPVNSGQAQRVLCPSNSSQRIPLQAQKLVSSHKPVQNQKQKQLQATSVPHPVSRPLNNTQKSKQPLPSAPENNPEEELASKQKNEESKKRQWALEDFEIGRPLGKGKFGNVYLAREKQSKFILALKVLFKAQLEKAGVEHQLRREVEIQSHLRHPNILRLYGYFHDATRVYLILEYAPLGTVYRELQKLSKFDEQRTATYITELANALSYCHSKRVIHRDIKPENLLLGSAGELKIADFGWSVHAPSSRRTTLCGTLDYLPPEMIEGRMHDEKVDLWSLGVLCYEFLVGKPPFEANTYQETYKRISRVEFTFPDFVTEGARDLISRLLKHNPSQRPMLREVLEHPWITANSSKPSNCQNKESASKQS
The note with it: Protein STK6; DSF; average of three replicates. An outline of the steps:
as §1

For test [3], the target named is T3, ~100 representative kinases (Homo sapiens, UniProt P11309).
T3 construct: Recombinant protein kinase domains with a concentration of 2 μM
T3 sequence (P11309 whole entry, the tested form may be a part): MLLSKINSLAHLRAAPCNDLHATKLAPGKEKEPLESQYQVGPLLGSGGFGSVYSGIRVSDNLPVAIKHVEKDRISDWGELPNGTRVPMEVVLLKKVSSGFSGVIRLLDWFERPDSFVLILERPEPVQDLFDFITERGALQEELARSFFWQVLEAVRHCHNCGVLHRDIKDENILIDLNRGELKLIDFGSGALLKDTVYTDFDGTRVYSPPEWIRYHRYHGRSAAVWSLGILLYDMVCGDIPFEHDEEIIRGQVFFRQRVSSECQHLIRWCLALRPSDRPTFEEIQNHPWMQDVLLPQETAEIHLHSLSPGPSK
As to conditions: protein PIM1; average of three replicates. An outline of the steps:
as §1

The target of test [4] is T4, ~100 representative kinases (Homo sapiens, UniProt P12931).
T4 construct: Recombinant protein kinase domains with a concentration of 2 μM
T4 sequence (P12931 whole entry, the tested form may be a part): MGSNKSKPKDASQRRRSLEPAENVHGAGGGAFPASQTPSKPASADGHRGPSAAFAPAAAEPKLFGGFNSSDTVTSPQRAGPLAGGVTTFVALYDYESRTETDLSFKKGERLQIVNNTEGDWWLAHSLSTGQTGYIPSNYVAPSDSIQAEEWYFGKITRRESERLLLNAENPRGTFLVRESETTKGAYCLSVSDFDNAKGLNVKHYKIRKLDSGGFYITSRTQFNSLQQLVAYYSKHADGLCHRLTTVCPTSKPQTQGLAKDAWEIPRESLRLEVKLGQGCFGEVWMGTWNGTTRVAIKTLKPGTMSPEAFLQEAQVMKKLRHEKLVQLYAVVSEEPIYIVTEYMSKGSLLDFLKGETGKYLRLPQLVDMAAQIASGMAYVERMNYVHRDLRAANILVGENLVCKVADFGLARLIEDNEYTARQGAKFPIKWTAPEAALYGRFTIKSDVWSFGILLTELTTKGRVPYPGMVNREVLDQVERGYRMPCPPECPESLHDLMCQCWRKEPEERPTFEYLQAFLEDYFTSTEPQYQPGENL
The note with it: Protein SRC; DSF; average of three replicates. An outline of the steps:
as §1

The target in test [5] is T5, ~100 representative kinases (Homo sapiens, UniProt P45983).
T5 construct: Recombinant protein kinase domains with a concentration of 2 μM
T5 sequence (P45983 whole entry, the tested form may be a part): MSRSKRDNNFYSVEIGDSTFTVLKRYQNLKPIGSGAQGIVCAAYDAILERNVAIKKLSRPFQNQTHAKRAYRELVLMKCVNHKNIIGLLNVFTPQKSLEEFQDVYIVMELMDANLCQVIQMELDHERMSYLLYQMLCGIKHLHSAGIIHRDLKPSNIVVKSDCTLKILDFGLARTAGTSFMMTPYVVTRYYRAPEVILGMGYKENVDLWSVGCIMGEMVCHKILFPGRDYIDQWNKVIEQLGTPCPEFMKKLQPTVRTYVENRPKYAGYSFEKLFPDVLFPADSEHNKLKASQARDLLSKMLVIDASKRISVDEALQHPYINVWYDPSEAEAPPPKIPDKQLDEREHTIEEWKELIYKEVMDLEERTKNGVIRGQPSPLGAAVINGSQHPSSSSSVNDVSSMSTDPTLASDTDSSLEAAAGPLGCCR
As to conditions: protein MAPK8; average of three replicates. An outline of the steps:
as §1

Test [6] deals with T6, ~100 representative kinases (Homo sapiens, UniProt P45984).
T6 construct: Recombinant protein kinase domains with a concentration of 2 μM
T6 sequence (P45984 whole entry, the tested form may be a part): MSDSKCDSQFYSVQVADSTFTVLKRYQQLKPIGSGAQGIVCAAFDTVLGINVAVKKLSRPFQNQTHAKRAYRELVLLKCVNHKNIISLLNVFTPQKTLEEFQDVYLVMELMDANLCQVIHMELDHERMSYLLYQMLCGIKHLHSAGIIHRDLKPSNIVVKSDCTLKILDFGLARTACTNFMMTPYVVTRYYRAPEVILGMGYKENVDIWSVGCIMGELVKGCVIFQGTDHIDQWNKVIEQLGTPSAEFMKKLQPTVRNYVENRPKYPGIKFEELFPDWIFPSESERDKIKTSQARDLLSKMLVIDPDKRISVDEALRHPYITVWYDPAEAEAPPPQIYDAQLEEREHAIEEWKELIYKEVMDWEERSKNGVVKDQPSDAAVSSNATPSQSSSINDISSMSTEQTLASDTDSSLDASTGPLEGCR
As to conditions: protein MAPK9; average of three replicates. An outline of the steps: as §1

Test [7] deals with T7, ~100 representative kinases (Homo sapiens, UniProt P49137).
T7 construct: Recombinant protein kinase domains with a concentration of 2 μM
T7 sequence (P49137 whole entry, the tested form may be a part): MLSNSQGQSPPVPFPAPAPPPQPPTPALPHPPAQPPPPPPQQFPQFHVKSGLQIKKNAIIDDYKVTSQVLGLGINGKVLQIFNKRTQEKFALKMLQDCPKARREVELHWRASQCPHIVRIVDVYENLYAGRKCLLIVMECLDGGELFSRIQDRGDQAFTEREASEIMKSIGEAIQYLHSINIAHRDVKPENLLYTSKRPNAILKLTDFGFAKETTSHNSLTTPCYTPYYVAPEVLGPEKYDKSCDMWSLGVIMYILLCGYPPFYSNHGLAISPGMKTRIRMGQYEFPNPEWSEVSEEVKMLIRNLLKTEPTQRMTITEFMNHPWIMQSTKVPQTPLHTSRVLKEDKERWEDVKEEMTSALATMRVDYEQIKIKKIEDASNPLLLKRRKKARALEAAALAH
As to conditions: protein MAPKAPK2; average of three replicates. The procedure, abridged: as §1

The target of test [8] is T8, ~100 representative kinases (Homo sapiens, UniProt Q00532).
T8 construct: Recombinant protein kinase domains with a concentration of 2 μM
T8 sequence (Q00532 whole entry, the tested form may be a part): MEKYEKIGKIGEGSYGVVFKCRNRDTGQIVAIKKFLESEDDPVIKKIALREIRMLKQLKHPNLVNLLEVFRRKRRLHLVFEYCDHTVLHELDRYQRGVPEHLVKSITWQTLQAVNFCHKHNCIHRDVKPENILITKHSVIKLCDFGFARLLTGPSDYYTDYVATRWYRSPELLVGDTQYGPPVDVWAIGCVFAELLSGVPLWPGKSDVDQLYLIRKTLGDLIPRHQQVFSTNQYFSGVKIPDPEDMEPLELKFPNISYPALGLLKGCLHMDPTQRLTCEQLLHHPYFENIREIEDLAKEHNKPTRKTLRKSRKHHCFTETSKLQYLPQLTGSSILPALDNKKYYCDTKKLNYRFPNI
As to conditions: Protein CDKL1; average of three replicates. The procedure, abridged: as §1

Test [9] has as its target T9, ~100 representative kinases (Homo sapiens, UniProt Q13188).
T9 construct: Recombinant protein kinase domains with a concentration of 2 μM
T9 sequence (Q13188 1-491): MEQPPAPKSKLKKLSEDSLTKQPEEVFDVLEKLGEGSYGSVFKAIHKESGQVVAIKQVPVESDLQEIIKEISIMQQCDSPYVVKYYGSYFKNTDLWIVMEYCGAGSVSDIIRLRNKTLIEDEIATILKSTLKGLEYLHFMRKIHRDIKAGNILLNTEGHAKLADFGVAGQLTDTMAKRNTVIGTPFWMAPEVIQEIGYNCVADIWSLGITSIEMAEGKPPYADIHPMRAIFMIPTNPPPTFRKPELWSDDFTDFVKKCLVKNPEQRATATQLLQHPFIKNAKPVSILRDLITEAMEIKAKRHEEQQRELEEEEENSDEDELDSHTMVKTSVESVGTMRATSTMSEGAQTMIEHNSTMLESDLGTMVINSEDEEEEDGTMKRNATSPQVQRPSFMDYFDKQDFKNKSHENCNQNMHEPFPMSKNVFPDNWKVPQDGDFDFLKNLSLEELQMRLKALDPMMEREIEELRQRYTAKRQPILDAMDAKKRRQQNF
The note with it: Protein STK3; DSF; average of three replicates. An outline of the steps:
as §1

Test [10] deals with T10, ~100 representative kinases (Homo sapiens, UniProt Q96RR4).
T10 construct: Recombinant protein kinase domains with a concentration of 2 μM
T10 sequence (Q96RR4 whole entry, the tested form may be a part): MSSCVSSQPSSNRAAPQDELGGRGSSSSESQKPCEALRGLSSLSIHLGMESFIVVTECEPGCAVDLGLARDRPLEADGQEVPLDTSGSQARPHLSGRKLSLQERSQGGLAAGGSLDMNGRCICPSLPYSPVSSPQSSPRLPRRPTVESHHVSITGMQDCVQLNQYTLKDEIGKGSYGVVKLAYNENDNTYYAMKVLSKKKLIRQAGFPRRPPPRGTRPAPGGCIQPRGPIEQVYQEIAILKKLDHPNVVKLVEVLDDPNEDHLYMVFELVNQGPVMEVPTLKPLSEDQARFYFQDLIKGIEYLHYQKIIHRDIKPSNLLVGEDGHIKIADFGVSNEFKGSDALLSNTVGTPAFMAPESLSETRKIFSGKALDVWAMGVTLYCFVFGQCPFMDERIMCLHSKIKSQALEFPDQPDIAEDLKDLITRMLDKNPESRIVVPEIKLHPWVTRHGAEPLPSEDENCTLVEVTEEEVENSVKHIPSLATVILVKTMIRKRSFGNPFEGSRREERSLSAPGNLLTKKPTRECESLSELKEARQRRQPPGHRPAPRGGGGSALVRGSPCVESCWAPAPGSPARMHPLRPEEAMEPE
The note with it: Protein CAMKK2; average of three replicates. An outline of the steps:
as §1

Test [11] addresses T11, ~100 representative kinases (Homo sapiens, UniProt Q9H2X6).
T11 construct: Recombinant protein kinase domains with a concentration of 2 μM
As to conditions: protein HIPK2; average of three replicates. An outline of the steps:
as §1

The target of test [12] is T12, ~100 representative kinases (Homo sapiens, UniProt Q9Y243).
T12 construct: Recombinant protein kinase domains with a concentration of 2 μM
T12 sequence (Q9Y243 whole entry, the tested form may be a part): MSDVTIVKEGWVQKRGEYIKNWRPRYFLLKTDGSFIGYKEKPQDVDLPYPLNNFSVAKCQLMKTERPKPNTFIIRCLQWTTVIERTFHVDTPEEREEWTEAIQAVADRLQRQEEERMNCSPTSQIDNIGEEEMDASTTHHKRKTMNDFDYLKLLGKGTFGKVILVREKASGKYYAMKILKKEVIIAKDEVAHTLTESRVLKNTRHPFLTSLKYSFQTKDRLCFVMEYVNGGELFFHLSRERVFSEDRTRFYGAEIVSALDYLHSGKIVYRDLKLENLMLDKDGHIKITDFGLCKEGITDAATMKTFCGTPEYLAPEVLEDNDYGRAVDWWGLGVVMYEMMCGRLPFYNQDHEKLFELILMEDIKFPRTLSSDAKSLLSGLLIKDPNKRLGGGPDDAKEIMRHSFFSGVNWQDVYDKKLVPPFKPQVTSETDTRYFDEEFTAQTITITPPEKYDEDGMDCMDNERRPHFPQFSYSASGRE
The note with it: Protein AKT3; average of three replicates. The procedure, abridged:
as §1

T11 sequence (Q9H2X6 whole entry, the tested form may be a part): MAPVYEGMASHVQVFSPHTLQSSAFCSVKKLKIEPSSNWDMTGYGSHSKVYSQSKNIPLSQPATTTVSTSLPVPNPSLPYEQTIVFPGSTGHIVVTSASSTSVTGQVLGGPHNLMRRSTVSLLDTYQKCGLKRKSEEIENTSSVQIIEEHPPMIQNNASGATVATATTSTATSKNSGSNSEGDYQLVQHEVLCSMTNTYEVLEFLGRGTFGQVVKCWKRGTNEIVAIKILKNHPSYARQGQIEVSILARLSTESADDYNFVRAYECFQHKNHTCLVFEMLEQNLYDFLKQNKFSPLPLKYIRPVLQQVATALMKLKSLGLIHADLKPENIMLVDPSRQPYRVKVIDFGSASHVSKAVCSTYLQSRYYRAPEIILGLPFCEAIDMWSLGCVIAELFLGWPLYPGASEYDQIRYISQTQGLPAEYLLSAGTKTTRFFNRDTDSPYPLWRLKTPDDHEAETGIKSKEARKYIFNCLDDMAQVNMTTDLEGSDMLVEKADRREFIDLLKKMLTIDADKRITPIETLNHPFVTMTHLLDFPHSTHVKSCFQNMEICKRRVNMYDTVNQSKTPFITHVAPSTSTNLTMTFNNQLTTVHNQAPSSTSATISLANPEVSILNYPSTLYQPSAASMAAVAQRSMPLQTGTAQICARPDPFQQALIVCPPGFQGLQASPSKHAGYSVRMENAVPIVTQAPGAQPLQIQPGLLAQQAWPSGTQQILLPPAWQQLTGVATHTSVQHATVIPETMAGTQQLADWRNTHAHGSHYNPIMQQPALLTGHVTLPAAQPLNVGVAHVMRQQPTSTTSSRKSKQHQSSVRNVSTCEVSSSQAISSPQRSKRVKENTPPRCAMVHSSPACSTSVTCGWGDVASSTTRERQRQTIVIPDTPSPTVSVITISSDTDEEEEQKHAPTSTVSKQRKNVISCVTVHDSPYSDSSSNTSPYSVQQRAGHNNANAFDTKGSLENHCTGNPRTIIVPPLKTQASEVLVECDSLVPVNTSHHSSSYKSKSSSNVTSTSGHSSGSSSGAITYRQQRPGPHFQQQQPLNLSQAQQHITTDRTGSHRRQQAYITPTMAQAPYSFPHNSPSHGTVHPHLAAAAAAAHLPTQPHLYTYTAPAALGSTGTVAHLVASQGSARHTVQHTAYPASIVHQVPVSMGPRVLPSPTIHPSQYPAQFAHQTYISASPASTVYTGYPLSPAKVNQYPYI

Turning to `O=C(Nc1cccc(-c2c[nH]c3ncnc(N4CCOCC4)c23)c1)C1(C(=O)Nc2ccc(F)c(Cl)c2)CC1` [Compound 18], the dTm in test [1] was found to be 5.35 K; in test [2], 8.24 K; in test [3] it was 5.41 K; in test [4], 1.18 K; in test [5], 3.23 K; in test [6], 5.44 K. In addition, the dTm in test [7] is 0.22 K; in [8], 3.38 K; in test [9], 8.55 K; in [10], 9.58 K; in [11], 10.76 K; in [12], 1.04 K.

In the case of `CCc1ccc(NC(=O)C2(C(=O)Nc3cccc(-c4c[nH]c5ncnc(N6CCOCC6)c45)c3)CC2)cc1` [Compound 15], the dTm in test [1] came to 3.12 K; in test [2] it was 9.54 K; in test [3], 1.02 K; in [4] it was 1.22 K; in test [5] it was 1.56 K; in test [6], 4.14 K. Besides, the dTm is recorded as 0.05 K in test [7]; 2.19 K in [8]; 8.42 K in [9]; 5.52 K in test [10]; 8.10 K in test [11]; -0.80 K in test [12].

As to `O=C(Nc1cccc(-c2c[nH]c3ncnc(N4CCOCC4)c23)c1)c1cccn(-c2ccc(F)cc2)c1=O` [Compound 4], the dTm in test [1] is reported as 5.76 K; in test [2], 7.18 K; in [3], 0.92 K; in test [4], 1.27 K; in test [5] it was 3.47 K; in test [6], 5.57 K. Further, the dTm in test [7] is recorded as -0.41 K; in [8], 5.10 K; in test [9], 9.51 K; in test [10], 8.67 K; in test [11], 8.43 K; in test [12], -0.17 K.

Take `O=C(Nc1ccccc1)C1(C(=O)Nc2cccc(-c3c[nH]c4ncnc(N5CCOCC5)c34)c2)CC1` [Compound 12]: the dTm in test [1] came out at 4.30 K; in test [2] it was 6.39 K; in [3], 3.25 K; in [4], 1.12 K; in test [5], 1.81 K; in [6] it was 2.81 K. Moreover, the dTm is -0.15 K in [7]; 3.09 K in test [8]; 6.83 K in [9]; 5.09 K in test [10]; 7.64 K in test [11]; 0.16 K in test [12].

As to `Cc1cc(F)ccc1NC(=O)C1(C(=O)Nc2cccc(-c3c[nH]c4ncnc(N5CCOCC5)c34)c2)CC1` [Compound 24], the dTm in test [1] came to 3.14 K; in test [2], 6.56 K; in test [3] it was 0.58 K; in [4], 0.70 K; in test [5], 2.35 K; in [6], 2.21 K. Moreover, the dTm in test [7] is reported as -0.55 K; in test [8] it was 1.46 K; in test [9], 6.63 K; in test [10], 6.43 K; in test [11] it was 4.12 K; in test [12] it was 0.50 K.

Regarding `O=C(Nc1ccc(Cl)cc1)C1(C(=O)Nc2cccc(-c3c[nH]c4ncnc(N5CCOCC5)c34)c2)CC1` [Compound 13], the dTm in test [1] stood at 4.62 K; in test [2] it was 9.16 K; in test [3], 4.69 K; in [4], 1.70 K; in [5], 3.26 K; in [6], 3.96 K. Further, the dTm in test [7] was 0.68 K; in test [8] it was 3.38 K; in test [9], 10.20 K; in [10], 7.83 K; in test [11], 10.73 K; in [12], 0.45 K.

Take `O=C(Nc1cccc(-c2c[nH]c3ncnc(N4CCOCC4)c23)c1)C1(C(=O)Nc2ccc(F)c(F)c2)CC1` [Compound 17]: the dTm is recorded as 4.27 K in [1]; 7.27 K in test [2]; 3.60 K in test [3]; 1.01 K in [4]; 2.52 K in test [5]; 2.95 K in test [6]. Besides, the dTm is -0.12 K in test [7]; 2.59 K in [8]; 7.68 K in test [9]; 6.90 K in test [10]; 9.54 K in test [11]; 0.71 K in test [12].

With `CC(C)(C)c1cc(NC(=O)Nc2cccc(-c3c[nH]c4ncnc(N5CCOCC5)c34)c2)n(-c2ccc3ncccc3c2)n1` [Compound 28], the dTm in test [1] was 3.13 K; in test [2] it was 4.51 K; in test [3] it was 7.97 K; in test [4], 7.10 K; in test [5], 3.58 K; in test [6] it was 6.00 K. Further, the dTm in test [7] amounted to 0.51 K; in test [8] it was 8.21 K; in test [9], 10.40 K; in [10], 12.27 K; in test [11], 9.47 K; in test [12], 0.49 K.

As to `COc1cc2c(Oc3ccc(NC(=O)C4(C(=O)Nc5ccc(F)cc5)CC4)cc3F)ccnc2cc1OCCCN1CCOCC1` [Foretinib, reference compound], the dTm is recorded as 1.41 K in test [3]; 8.21 K in test [4]; 2.68 K in test [5]; 2.84 K in test [6]; 0.33 K in test [7]; 1.22 K in [8]. Besides, the dTm in test [9] is 8.88 K; in test [10], 10.75 K; in [11] it was 4.61 K; in test [12], -0.34 K.

Turning to `COc1ccc(NC(=O)C2(C(=O)Nc3cccc(-c4c[nH]c5ncnc(N6CCOCC6)c45)c3)CC2)cc1` [Compound 16], the dTm is listed as 0.55 K in [1]; 5.48 K in [2]; -0.51 K in test [3]; 0.65 K in test [4]; 0.26 K in test [5]; 1.53 K in test [6]. Also, the dTm was -0.05 K in [7]; 1.33 K in test [8]; 5.34 K in test [9]; 1.74 K in test [10]; 6.00 K in test [11]; 0.25 K in test [12].

As for `CN[C@@H]1C[C@H]2O[C@@](C)([C@@H]1OC)n1c3ccccc3c3c4c(c5c6ccccc6n2c5c31)C(=O)NC4` [Staurosporine], the dTm in test [1] was 7.05 K; in test [2], 20.49 K; in [9], 16.47 K; in test [10], 24.44 K; in test [11] it was 4.23 K.

The values above are taken from PMC12136037, “Type II kinase inhibitors that target Parkinson’s disease–associated LRRK2” (Science Advances, 2025).
